Patent US20060234987A1, “Neuroprotective benzo 1 3 oxathiol 2 ones” (priority 2003, published 2006)

Experiments:
Format in all cases: biochemical
Settings in all cases: Table 6
[1] = target: T1, CD45 (Homo sapiens, UniProt P08575); test: CD45 (PTPase) Assay
T1 construct: purchased BIOMOL Research Laboratories, Inc
T1 sequence (P08575 26-1306): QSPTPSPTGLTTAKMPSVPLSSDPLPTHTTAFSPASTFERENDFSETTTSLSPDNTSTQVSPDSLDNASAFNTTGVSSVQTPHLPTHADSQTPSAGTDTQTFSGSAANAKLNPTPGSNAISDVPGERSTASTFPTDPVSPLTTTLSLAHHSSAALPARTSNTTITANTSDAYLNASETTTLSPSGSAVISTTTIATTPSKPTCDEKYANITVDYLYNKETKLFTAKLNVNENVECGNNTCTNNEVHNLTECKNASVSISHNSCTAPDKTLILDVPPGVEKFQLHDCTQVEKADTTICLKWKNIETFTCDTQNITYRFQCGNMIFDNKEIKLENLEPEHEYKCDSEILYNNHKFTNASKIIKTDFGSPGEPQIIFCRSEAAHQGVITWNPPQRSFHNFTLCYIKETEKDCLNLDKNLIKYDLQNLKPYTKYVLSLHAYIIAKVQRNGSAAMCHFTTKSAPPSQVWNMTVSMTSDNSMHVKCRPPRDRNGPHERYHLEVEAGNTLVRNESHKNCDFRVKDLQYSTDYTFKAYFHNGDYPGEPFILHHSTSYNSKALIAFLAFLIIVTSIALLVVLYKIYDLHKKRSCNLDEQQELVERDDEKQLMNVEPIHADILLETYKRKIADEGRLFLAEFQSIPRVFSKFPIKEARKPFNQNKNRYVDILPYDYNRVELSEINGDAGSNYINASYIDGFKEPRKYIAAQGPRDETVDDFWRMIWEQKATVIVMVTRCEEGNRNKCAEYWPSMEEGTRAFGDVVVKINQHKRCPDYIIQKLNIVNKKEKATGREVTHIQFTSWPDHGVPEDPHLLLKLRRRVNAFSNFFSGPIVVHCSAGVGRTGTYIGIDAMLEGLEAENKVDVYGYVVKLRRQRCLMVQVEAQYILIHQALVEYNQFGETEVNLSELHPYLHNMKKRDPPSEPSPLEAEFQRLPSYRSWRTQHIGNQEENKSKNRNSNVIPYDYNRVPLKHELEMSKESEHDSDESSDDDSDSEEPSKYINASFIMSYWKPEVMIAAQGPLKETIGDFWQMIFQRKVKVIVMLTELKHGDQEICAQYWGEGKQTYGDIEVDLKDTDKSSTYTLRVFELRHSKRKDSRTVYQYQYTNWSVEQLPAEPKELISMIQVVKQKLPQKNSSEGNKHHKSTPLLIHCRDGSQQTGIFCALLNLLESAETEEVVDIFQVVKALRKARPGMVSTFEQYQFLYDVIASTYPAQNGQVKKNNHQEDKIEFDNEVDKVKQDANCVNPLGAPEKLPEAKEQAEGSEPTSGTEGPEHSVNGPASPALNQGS
Procedure: D) CD45 (PTPase) Assay: Inhibition of the phosphatase CD45 was performed according to reported procedures (Pacitti, A. et al Biochem. Biophys. Acta, 1994, 1222, 277; Fisher, D. K. and Higgins, T. J. Pharmacol. Res., 1994, 11, 759). CD45 was purchased from BIOMOL Research Laboratories, Inc.

[2] = target: T2, LAR (Homo sapiens, UniProt P10586); test: LAR Assay
T2 construct: purchased BIOMOL Research Laboratories, Inc
T2 sequence (P10586 30-1907, species assumed): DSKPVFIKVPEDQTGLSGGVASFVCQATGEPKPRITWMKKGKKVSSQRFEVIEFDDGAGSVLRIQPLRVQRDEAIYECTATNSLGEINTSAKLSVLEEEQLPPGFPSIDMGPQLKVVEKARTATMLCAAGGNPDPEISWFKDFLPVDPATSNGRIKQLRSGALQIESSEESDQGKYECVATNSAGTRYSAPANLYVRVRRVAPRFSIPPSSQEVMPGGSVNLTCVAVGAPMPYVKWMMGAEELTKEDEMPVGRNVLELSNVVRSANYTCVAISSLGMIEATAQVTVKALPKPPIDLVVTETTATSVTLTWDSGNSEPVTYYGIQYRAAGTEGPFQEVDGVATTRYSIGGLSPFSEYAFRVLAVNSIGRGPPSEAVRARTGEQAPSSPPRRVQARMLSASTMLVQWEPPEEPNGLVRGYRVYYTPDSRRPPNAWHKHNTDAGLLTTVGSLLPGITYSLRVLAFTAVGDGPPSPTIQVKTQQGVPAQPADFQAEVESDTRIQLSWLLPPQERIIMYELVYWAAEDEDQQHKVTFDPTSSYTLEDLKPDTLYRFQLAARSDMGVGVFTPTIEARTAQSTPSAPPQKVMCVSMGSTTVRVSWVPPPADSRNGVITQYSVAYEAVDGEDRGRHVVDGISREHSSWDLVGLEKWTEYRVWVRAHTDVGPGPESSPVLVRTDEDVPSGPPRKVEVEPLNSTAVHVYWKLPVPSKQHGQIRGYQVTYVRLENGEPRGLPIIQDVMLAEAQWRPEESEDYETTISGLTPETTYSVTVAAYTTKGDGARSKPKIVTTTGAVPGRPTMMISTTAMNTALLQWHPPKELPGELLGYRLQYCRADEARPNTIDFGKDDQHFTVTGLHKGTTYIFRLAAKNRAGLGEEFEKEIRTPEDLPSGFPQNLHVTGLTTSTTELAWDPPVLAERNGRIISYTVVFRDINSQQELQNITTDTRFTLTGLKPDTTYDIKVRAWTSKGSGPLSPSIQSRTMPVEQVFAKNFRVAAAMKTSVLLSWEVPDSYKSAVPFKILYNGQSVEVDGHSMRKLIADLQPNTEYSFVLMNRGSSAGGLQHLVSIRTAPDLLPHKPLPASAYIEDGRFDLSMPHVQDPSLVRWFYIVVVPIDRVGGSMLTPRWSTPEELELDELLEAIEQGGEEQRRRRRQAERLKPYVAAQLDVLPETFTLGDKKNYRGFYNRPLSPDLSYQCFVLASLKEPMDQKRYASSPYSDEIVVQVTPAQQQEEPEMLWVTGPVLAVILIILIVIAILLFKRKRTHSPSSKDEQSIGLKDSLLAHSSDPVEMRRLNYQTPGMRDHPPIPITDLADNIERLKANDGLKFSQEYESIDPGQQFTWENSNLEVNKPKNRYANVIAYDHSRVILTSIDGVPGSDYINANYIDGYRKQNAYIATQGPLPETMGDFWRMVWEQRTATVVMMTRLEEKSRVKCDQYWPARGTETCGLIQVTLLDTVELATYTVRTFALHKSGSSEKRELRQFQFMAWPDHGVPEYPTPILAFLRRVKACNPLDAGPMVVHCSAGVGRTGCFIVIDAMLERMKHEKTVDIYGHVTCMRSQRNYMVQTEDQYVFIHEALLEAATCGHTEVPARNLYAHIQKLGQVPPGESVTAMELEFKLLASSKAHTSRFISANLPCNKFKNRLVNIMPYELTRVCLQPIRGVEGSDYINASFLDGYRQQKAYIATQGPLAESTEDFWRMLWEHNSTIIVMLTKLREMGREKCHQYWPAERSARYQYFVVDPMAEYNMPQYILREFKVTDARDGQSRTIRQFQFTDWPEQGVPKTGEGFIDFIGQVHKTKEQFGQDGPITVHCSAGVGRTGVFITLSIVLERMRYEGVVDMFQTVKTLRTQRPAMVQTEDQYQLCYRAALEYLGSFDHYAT
Procedure: C) LAR Assay: Inhibition of the phosphatase LAR was performed according to reported procedures (Cho, H. Biochemistry 1991, 30, 6210; 1992, 31, 133; Cho, H. Prot. Sci., 1993, 2, 977). LAR was purchased from BIOMOL Research Laboratories, Inc.

[3] = system: PP1; test: PP1 Assay
Procedure: E) PP1 Assay: Inhibition of the phosphatase PP1 was performed according to reported procedures (Nat. Biotechnol., 2000, 18, 847).

[4] = target: T3, SHP2 (Homo sapiens, UniProt Q06124); test: Phosphatase profile: SHP2 inhibition (DIFMUP fluorescence)
T3 construct: made in house; host or cells: adenovirus vector
T3 sequence (Q06124 1-593): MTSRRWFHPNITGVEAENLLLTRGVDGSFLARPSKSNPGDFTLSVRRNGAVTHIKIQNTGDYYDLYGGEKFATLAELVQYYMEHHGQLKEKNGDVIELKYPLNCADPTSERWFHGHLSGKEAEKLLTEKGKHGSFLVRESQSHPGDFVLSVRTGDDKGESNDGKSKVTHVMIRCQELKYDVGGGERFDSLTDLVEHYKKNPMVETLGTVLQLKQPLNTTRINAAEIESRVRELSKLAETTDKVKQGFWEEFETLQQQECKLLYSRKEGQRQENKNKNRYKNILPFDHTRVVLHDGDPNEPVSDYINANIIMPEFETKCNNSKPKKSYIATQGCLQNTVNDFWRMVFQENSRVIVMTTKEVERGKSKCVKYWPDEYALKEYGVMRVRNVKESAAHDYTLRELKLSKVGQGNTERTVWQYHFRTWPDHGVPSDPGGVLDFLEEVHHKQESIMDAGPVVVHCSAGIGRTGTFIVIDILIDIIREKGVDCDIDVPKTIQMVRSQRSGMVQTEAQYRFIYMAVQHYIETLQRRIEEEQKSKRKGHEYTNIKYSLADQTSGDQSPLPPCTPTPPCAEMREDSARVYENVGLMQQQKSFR
Procedure: A) SHP1 and SHP2: SHP1 and SHP2 adenovirus vectors were prepared. SHP1 and SHP2 were independently over expressed, isolated and purified using FPLC. Enzyme was diluted to 1000-1400 FU/min. Enzyme (45 μL) was uniformLy plated in 96 well plates and treated with serial dilutions of compound (2 μL in DMSO). Compound and enzyme are allowed to incubate for 30 minutes at RT before the addition of DIFMUP (100 μM). The solutions are allowed to incubate at RT for 10 minutes prior to reading the fluorescence, to provide IC50 curves using LSW Data Analysis Tool Box (MDL).

O=c1oc2c(Sc3ccc4ccccc4c3)cc(O)c(Sc3ccc4ccccc4c3)c2s1 [Compound 30, 4,7-Bis-((2-naphthyl)sulfanyl)-5-hydroxybenzo[1,3]oxathiol-2-one]
C45 IC50 [1]: no inh. | LAR IC50 [2]: no inh. | PP1 IC50 [3]: no inh. | IC50 [4]: 18.4 µM

O=c1oc2c(Sc3ccc4ccccc4c3)cc(O)cc2s1 [Compound 23, 5-Hydroxy-7-((2-naphthy)sulfanyl)benzo[1,3]oxathiol-2-one]
C45 IC50 [1]: no inh. | IC50 [2]: > 100 µM | PP1 IC50 [3]: no inh. | IC50 [4]: 16.5 µM
